What was measured:
LOX human melanoma cells = test: growth of LOX melanoma cells in-vitro (FIG. 5); type: cell-based; conditions: 10 μM BESPM, 48 hours
Experimental: As mentioned previously, cells from malignant solid tumor respond to polyamine analog therapy heterotypically. SSAT induction and antitumor response may vary not only among the solid tumor tissue type, but also with the clonal line of tumor of a particular solid tissue type. However, a correlation between the level of induction of SSAT and the potency of antitumor response has been observed in tumors of a particular solid tissue type. For example, seven human melanoma cell lines were assayed in-vitro for their response, as determined by cell growth and level of SSAT induction, to 10 μM BESPM at 48 hours post-treatment. As summarized in FIG. 5, growth among the cell lines decreases as SSAT induction increases.

[1] = tested on: A549 lung adenocarcinoma xenografts; test: antitumor response against A549 lung adenocarcinoma xenografts in mice; type: in vivo, human
Experimental: […] where 1 represents length; w--width; and h--height. Tumor sizes were monitored 2 times/week until the median volume (V=0.4(a^2 ×b) where a is the smaller of the two perpendicular tumor diameters). As an indication of drug toxicity, animal weights were also recorded at the time of tumor volume measurement. Statistical analyses were performed on mouse tumor size and weight parameters by using the Mann-Whitney test.
Tumor growth suppression was measured by plotting the mean tumor volume versus the number of days post-inoculation with polyamine analog (growth curve analyses). Suppression is determined by comparison with the growth of untreated tumors (%T/C). More specifically,: %T/C is (treated tumor volume minus pretreatment volume) divided by (control tumor volume minus pretreatment volume)×100. Typically this is measured either when the control tumor volume reaches 1000 mm^3, or at the last day of treatment.
Tumor regression is measured as a percentage representing the average percentage of decrease in tumor volume from the largest pretreatment volume value.
Repression of regrowth is represented as regrowth delay, determined as the number of days following cessation of treatment when median group tumor volume exceeds 200 mm^3 (an arbitrary indication of regrowth which was determined statistically).
Cells from malignant solid human tumor tissue types, other than melanoma, have also been evaluated for their responsiveness to polyamine analog treatment including clonal cell lines A121 (human ovarian adenocarcinoma),A549 (lung adenocarcinoma), and HT29 colon adenocarcinoma). These cell lines were evaluated for the level of SSAT induction and potency of antitumor response following BENSPM treatment (80 mg/kg 3×/day×6 days) in-vivo using the methodology previously described in this embodiment. Also, dose of BENSPM was compared (80 mg/kg versus 40 mg/kg). The baseline of SSAT activity in the control mice (2 of 7 mice) ranged from 40 to 90 pmol/min/mg. Tumor cells from the human xenografts A121, A549, and HT29 were removed from two mice of each treated group of seven mice containing the respective xenograft at 16 hours following the final BENSPM injection to evaluate the level of induction of SSAT activity. […] The response to the polyamine analog was heterotypic. […] As discussed previously, it is not known whether the heterotypic antitumor response may be due to either the individual properties of the clonal line or the particular solid tumor type.

[2] = A549, BENSPM 80 mg/kg 3x/d × 6d
[3] = A549 xenograft, 80 mg/kg 3×/day×6 days

Structure (SMILES) | growth inhibition (FIG. 5) (LOX human melanoma cells) | % T/C at 1 g [1, 2] [%] | Tumor Regression [1, 2] | Regrowth Delay ([1]; A549, BENSPM 80 mg/kg 3x/d × 6d, dt 10 days) [× dt] | No Regrowth ([1]; A549, BENSPM 80 mg/kg 3x/d × 6d, for duration of experiment) | growth suppression after cessation of treatment [1, 3] [days] | tumor regrowth [1, 3]
CCNCCCNCCCCNCCCNCC [BESPM, N^1,N^12-bis(ethyl)spermine] | least growth inhibition |  |  |  |  |  | 
CCNCCCNCCCNCCCNCC [BENSPM, N^1,N^11 -bis(ethyl)norspermine] |  | 13 | no measurable tumor regression and None | 8.5 | 2/5 | 85 | minimal tumor regrowth
